Like-named read-outs stand apart in the source and are kept apart here. Values belong to the compound of their own block, whether it stands above or below them.
Key:
in vivo [1] = settings: mouse, po
Description: The observation period after treatment lasted for 14 days.
Statistical evaluation was carried out as described by Litchfield-Wilcoxon's method.

in vivo [2] = type: in vivo; settings: mouse, in vivo, po; mice, LD50/writhing ID50; read-out: TI (therapeutic index)
Description: (§1) Between the 5th and 10th minute after the administration of acetic acid total number of the typical writhing reactions was counted, and expressed as percentage of the control. The experiments were performed in groups of at least 12 mice; measurements were done 60 min. after oral application of the test compounds.

[3] = system: acetic-acid writhing reactions in mice; assay: animal or person; type: in vivo; settings: Mus musculus, po, 1 h, read-out: Writhing test ID50
Description: as §1

[4] = system: carrageenin-induced oedema in rats; assay: Carrageenin-induced oedema test in rats; type: in vivo; settings: 3 h after carrageenin
Description: Inhibitory activity in carrageenin-induced oedema test was assessed in rats using the technique of Winter at al. (1962). Carageenin (0.1 ml of 1.0% solution) was injected into the plantar surface of the hind paw of rats weighing 130-160 g. Rats were fasted for 12 hours and received drinking water ad libitum. One hour before treatment with the test compound animals were hydrated orally with 30 ml/kg of tap water. The test compounds or the vehicle were administered p.o. in a volume of 10 ml/kg, then two hours later carrageenin was applied. The paw volume was determined in a plethysmometer prior to and 3 hours after administration of the irritant.

[5] = system: brewer's yeast induced fever in rats; assay: Antipyretic activity in rats (brewer's yeast fever); type: in vivo, Wistar rats
Description: The experiments were performed in groups of 10 Wistar rats of both sexes weighing 160-200 g. Fever was induced by 20% brewer's yeast suspended in 0.9% saline solution, applied subcutaneously in a volume of 2 ml/rat distributed at various sites of the back. After 18 hours the test compound or the vehicle was administered in a volume of 10 ml/kg p.o. During this period the rats were fasted but received drinking water ad libitum. The rectal temperature of the animals was measured with a Thermotest thermometer 2 days before injection of the fever inducer, then before the application of the test compound and after treatment in every 60th min. Animals with increase in body temperature less than 0.8° C. were excluded. The results were evaluated according to the statistical method of Duncan.

[6] = system: acetic acid writhing reactions in rats; assay: Writhing test in rats (acetic acid); settings: Rattus norvegicus, po, 1 h, read-out: Writhing test ID50
Description: (§2) Five minutes after treatment with acetic acid, total number of characteristic writhing reactions was counted for 10 minutes and expressed as percentage of the control group.

[7] = system: gastric secretion in rats; assay: Effect on gastric secretion in rats (Shay, pylorus ligation); type: in vivo, Wistar rats; settings: for Gastric juice / Free acid content / Total acid content: per 100 g body weight; for Free acid content / Total acid content: titration with 0.1 N NaOH
Description: The experiments were carried out following the surgical method of Shay et al. (1946). Fasted Wistar rats weighing 200-250 g were used. During a 48 hours, starving period rats received drinking water ad libitum. The experimental groups consisted of 4 males and 4 females.
On the day of experiment the pylorus of rats was ligated under ether anaesthesia. […] The control groups were treated simultaneously with identical volumes of vehicle in identical route of administration.
Four hours after operation rats were killed with ether, their stomach was removed after cardia ligature, the stomach contents were separated and after centrifugation the volume of the gastric juice was measured. The free acid and total acid content were assayed by titration with 0.1 N NaOH.
The results were individually transformed for 100 g body weight and statistically evaluated by Wilcoxon's method.

[8] = system: adjuvant arthritis in rats; assay: Adjuvant arthritis in rats; type: in vivo, Long Evans rats; settings: for Paw swelling, % Right: injected right hindpaw, day 10 (primary response); for % inhibition Left: left hindpaw, secondary response; for % inhibition Right: right hindpaw, primary response; for Paw swelling, % Left: uninjected left hindpaw, day 15 (secondary response)
[9] = system: PHA stimulated granulocytes; assay: Chemiluminescence of PHA stimulated granulocytes; type: cell-based, human (healthy volunteers); settings: Homo sapiens, read-out: IC50, chemiluminescence of PHA stimulated granulocytes
Description: (§3) Heparinized blood (10 IU/ml) was taken from healthy volunteers. The blood diluted with equal volume of dextran, the white blood cells were separated by sedimentation. The granulocytes were separated by Uromio gradient. […] The cell suspension was put in dark box for 15 min. Luminol was dissolved in concentrated NH4 OH and diluted in the following solution:
(§4) 50 ml Tris-Parker medium (containing 1.2 g Tris, pH=7.4)
(§5) 4 ml glucose 40% w/v in water
(§6) The Luminol solution (500 μl) was measured in plastic vials and put in dark (37° C.). The reaction was started by addition of the cells and stimulating agent (Phytohaemaglutinin-PHA 10 μg/ml).
(§7) The vials were continuously and gently shaken and the PHA stimulation was measured in every 2.5 min. for 15 min. in a Beckmann LS-100 spectrometer (coincidence switched off). The percentage of the counts measured was calculated in comparison with the solvent treated control cells. At least 5 concentrations of each compound were investigated in at least 3 parallels.

[10] = Chemiluminescence induced by H2O2 in cell free medium
[11] = Writhing test in rats (acetic acid); settings: rat, in vivo, po
Description: as §2

gastric mucosa of rats = assay: Measurement of ulcerogenic activity; type: in vivo
Wistar rats = settings: from Barron et al. 1968, 20160 min; cited from earlier work
mononuclear cells = assay: Chemiluminescence of PHA stimulated mononuclear cells; type: cell-based, human (healthy volunteers)
Description: as §3, §4, §5, §6, §7

[12] = 200 mg/kg p.o., 1 hour following treatment
[13] = 200 mg/kg p.o., 3 hours following treatment
[14] = 200 mg/kg p.o., 5 hours following treatment

SMILES: CC(=O)Oc1ccccc1C(=O)O [Acetylsalicylic acid]
LD50 at 336 h (in vivo [1]): 1350 mg/kg
selectivity ratio (in vivo [2]): 5.2
ED50 [3]: 261 mg/kg
% inhibition of carrageenin-induced oedema ([4]; 100 mg/kg p.o.): 29.5%
Decrease in body temperature [5, 12]: 0.7 °C
Decrease in body temperature [5, 13]: 1.0 °C
Decrease in body temperature [5, 14]: 1.0 °C

SMILES: Cc1c(N(C)C)c(=O)n(-c2ccccc2)n1C [Amidazophen, 1-phenyl-2,3-dimethyl-4-dimethylamino-pyrazolone-5, reference compound]
Decrease in body temperature [5, 12]: 2.7 °C
Decrease in body temperature [5, 13]: 2.3 °C
Decrease in body temperature [5, 14]: 1.7 °C

SMILES: COc1ccc(Cc2cnc(N)nc2N)cc1OC [Compound A, 2,4-diamino-5-(3,4-dimethoxybenzyl)-pyrimidine]
ED50 [3]: 141 mg/kg
ED50 [6]: 36 mg/kg
% inhibition of carrageenin-induced oedema ([4]; 125 mg/kg p.o.): 42.0%
Gastric juice ([7]; 250 mg/kg orally): 3.01 mL
Free acid content ([7]; 250 mg/kg orally): 2.17 mL
Total acid content ([7]; 250 mg/kg orally): 4.33 mL
Gastric juice ([7]; 500 mg/kg orally): 2.93 mL
Free acid content ([7]; 500 mg/kg orally): 2.18 mL
Total acid content ([7]; 500 mg/kg orally): 4.40 mL
Gastric juice ([7]; 1000 mg/kg orally): 2.23 mL
Free acid content ([7]; 1000 mg/kg orally): 1.24 mL
Total acid content ([7]; 1000 mg/kg orally): 3.18 mL
inhibition at 250 mg/kg ([7]; Rattus norvegicus, 250 mg/kg, + = increase, - = decrease, read-out: % inhibition compared to the control, Gastric juice): 17.3%
Percent change from control (+ = increase, - = decrease) at 250 mg/kg ([7]; Rattus norvegicus, 250 mg/kg, read-out: % inhibition compared to the control, Free acid content): -23%
inhibition at 250 mg/kg ([7]; Rattus norvegicus, 250 mg/kg, read-out: % inhibition compared to the control, Total acid content): 11.8%
inhibition at 500 mg/kg ([7]; Rattus norvegicus, 500 mg/kg, + = increase, - = decrease, read-out: % inhibition compared to the control, Gastric juice): 15.2%
Percent change from control (+ = increase, - = decrease) at 500 mg/kg ([7]; Rattus norvegicus, 500 mg/kg, read-out: % inhibition compared to the control, Free acid content): -19.1%
inhibition at 500 mg/kg ([7]; Rattus norvegicus, 500 mg/kg, read-out: % inhibition compared to the control, Total acid content): 16.5%
inhibition at 1000 mg/kg ([7]; Rattus norvegicus, 1000 mg/kg, + = increase, - = decrease, read-out: % inhibition compared to the control, Gastric juice): -14%
Percent change from control (+ = increase, - = decrease) at 1000 mg/kg ([7]; Rattus norvegicus, 1000 mg/kg, p < 0.05, read-out: % inhibition compared to the control, Free acid content): -58.1%
inhibition at 1000 mg/kg ([7]; Rattus norvegicus, 1000 mg/kg, read-out: % inhibition compared to the control, Total acid content): -20.1%
Effect on gastric secretion (in words) ([7]; doses 250-1000 mg/kg): did not change the gastric secretion except in very high doses
Paw swelling, % Right ([8]; 100 mg/kg p.o. once daily): 56.9%
% inhibition Left ([8]; 100 mg/kg p.o. once daily): -47.1%
% inhibition Right ([8]; 100 mg/kg p.o. once daily): -51.4%
Paw swelling, % Left ([8]; 100 mg/kg p.o. once daily): 38.5%
Antipyretic activity (in words) [5]: significant antipyretic activity
Decrease in body temperature ([5]; 100 mg/kg p.o., 1 hour following treatment): 1.5 °C
Decrease in body temperature ([5]; 100 mg/kg p.o., 3 hours following treatment): 2.0 °C
Decrease in body temperature ([5]; 100 mg/kg p.o., 5 hours following treatment): 1.7 °C
Decrease in body temperature [5, 12]: 1.5 °C
Decrease in body temperature [5, 13]: 2.4 °C
Decrease in body temperature [5, 14]: 1.6 °C
IC50 [9]: 0.1 µM
Influence on chemiluminescence induced by H2O2 [10]: did not influence

SMILES: COc1ccc2c(c1)c(CC(=O)O)c(C)n2C(=O)c1ccc(Cl)cc1 [Indomethacin, 1-(p-chloro-benzoyl)-5-methoxy-2-methyl-1H-indole-3-acetic acid]
selectivity ratio [11]: 5.4
ED50 [6]: 4.7 mg/kg
% inhibition of carrageenin-induced oedema ([4]; 1 mg/kg p.o.): 40.3%
Ulcus-index (gastric mucosa of rats; 5 mg/kg orally 6 and 16 h before decapitation): 0.2
Ulcus-index (gastric mucosa of rats; 10 mg/kg orally 6 and 16 h before decapitation): 1.2
Ulcus-index (gastric mucosa of rats; 20 mg/kg orally 6 and 16 h before decapitation): 3.0
Effect on ulcus-index (in words) (gastric mucosa of rats; oral, over the doses of Table 4): increases does dependently the ulcus-index
IC50 [9]: > 100 µM
LD50 (Wistar rats): 25.5 mg/kg

SMILES: CC(=O)Nc1ccc(O)cc1 [Paracetamol, 4-hydroxy-acetanilide]
ED50 [3]: 180 mg/kg

IC50 ([9]; PHA 10 μg/ml, Luminol 32 μM): 100 µM
SMILES: CCCCC1C(=O)N(c2ccccc2)N(c2ccccc2)C1=O [Phenylbutazone, 3,5-dioxo-1,2-diphenyl-4-(n-butyl)-pyrazolidine]
ED50 [3]: 100 to 200 mg/kg
ED50 [6]: 19.7 mg/kg
% inhibition of carrageenin-induced oedema ([4]; 25 mg/kg p.o.): 56.6%
Paw swelling, % Right ([8]; 30 mg/kg p.o. once daily): 94.6%
% inhibition Left ([8]; 30 mg/kg p.o. once daily): -49.6%
% inhibition Right ([8]; 30 mg/kg p.o. once daily): -19.2%
Paw swelling, % Left ([8]; 30 mg/kg p.o. once daily): 36.7%
Activity on chemiluminescence in mononuclear cells (mononuclear cells): inactive

IC50 ([9]; PHA 10 μg/ml, Luminol 32 μM): 100 µM
SMILES: CN1C(C(=O)Nc2ccccn2)=C(O)c2ccccc2S1(=O)=O [Piroxicam, 4-hydroxy-2-methyl-N-2-pyridyl-2H-1,2-benzothiazine-3-carboxamide-1,1-dioxide]
Activity on chemiluminescence in mononuclear cells (mononuclear cells): inactive
